From ChEMBL document CHEMBL1126451, “Characterization of LY806303 as a potent and selective inhibitor of thrombin” (Bioorg Med Chem Lett, 1992)
Non-standard residues stand in square brackets, D forms with d. Residues, ends and D or L forms follow the SMILES beside them. dNMePhg = CN[C@@H](C(=O)O)c1ccccc1; NMePhg = CN[C@H](C(=O)O)c1ccccc1

Tests used:
[1] = In vitro concentration of compound required to inhibit 50% of nt-PA; design: species or system Homo sapiens
Coagulation factor X [2] = molecular target: T1, Coagulation factor X (Bos taurus, UniProt P00743); assay: In vitro concentration of compound required to inhibit 50% of Factor Xa
T1 sequence (P00743 41-180 limits assumed): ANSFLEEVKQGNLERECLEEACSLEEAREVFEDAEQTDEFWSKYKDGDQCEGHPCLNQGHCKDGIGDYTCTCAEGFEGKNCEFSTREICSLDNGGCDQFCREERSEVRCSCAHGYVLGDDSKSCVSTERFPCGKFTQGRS
T1 sequence (P00743 234-492 limits assumed): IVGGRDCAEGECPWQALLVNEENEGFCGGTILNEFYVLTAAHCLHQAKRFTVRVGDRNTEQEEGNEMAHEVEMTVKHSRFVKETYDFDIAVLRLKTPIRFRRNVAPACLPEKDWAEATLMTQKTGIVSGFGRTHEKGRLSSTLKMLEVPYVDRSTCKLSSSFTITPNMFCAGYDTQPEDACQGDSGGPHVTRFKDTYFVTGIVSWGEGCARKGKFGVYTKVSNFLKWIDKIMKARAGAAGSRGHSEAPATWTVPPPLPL

Serine protease 1 = molecular target: T2, Serine protease 1 (Bos taurus, UniProt P00760); assay: In vitro concentration of compound required to inhibit 50% of trypsin
T2 sequence (P00760 whole entry): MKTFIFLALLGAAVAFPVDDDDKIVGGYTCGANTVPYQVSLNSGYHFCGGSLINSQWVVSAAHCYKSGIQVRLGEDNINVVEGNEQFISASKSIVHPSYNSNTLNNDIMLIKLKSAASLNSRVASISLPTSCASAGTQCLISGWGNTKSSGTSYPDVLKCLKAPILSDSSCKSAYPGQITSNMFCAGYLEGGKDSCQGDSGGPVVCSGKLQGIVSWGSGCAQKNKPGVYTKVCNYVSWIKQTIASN

Plasma kallikrein [3] = molecular target: T3, Plasma kallikrein (Homo sapiens, UniProt P03952); assay: In vitro concentration of compound required to inhibit 50% of Kallikrein
T3 sequence (P03952 20-390 limits assumed): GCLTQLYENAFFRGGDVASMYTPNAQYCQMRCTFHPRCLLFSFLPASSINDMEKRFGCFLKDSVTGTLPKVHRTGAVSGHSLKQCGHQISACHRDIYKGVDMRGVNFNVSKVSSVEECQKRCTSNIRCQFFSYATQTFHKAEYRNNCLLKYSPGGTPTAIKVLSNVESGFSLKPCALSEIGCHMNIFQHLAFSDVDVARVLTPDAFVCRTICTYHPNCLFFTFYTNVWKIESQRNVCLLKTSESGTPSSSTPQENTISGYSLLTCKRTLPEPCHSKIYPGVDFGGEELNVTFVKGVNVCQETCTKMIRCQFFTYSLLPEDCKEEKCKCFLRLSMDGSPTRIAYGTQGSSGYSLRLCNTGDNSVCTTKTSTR
T3 sequence (P03952 391-638 limits assumed): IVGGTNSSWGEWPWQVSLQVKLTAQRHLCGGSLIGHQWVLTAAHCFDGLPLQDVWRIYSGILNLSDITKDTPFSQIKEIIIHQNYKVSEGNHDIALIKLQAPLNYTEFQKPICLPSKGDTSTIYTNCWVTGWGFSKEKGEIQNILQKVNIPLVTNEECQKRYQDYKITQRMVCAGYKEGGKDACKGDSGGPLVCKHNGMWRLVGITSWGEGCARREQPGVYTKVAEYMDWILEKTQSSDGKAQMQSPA

Plasminogen [4] = molecular target: T4, Plasminogen (Homo sapiens, UniProt P00747); assay: In vitro concentration of compound required to inhibit 50% of Plasmin
T4 sequence (P00747 97-580 limits assumed): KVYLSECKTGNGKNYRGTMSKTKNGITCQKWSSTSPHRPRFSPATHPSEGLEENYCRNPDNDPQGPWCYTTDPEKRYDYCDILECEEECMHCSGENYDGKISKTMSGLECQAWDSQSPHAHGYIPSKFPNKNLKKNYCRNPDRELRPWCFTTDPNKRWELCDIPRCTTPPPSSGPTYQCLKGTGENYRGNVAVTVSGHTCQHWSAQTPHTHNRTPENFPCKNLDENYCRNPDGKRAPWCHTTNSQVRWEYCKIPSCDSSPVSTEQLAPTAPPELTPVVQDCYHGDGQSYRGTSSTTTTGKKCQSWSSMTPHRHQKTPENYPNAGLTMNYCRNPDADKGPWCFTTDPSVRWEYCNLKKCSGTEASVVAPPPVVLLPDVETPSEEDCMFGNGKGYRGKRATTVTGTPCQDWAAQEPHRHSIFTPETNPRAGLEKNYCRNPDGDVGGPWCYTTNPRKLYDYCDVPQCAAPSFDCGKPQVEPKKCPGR
T4 sequence (P00747 581-810 limits assumed): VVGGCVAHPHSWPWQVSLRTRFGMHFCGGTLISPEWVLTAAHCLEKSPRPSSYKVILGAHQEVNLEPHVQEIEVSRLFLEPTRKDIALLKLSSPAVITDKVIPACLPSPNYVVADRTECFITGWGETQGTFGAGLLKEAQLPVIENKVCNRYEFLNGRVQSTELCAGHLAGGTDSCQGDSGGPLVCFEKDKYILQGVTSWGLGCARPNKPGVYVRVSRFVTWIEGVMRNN

Prothrombin = Prothrombin (Bos taurus, UniProt P00735)
Description: In vitro concentration of compound required to inhibit 50% of 6 nM thrombin

Plasminogen [5] = molecular target: T4, Plasminogen; assay: In vitro concentration of compound required to inhibit 50% of plasmin
Plasma kallikrein [6] = molecular target: T3, Plasma kallikrein; assay: In vitro concentration of compound required to inhibit 50% of kallikrein
Coagulation factor X [7] = molecular target: T1, Coagulation factor X; assay: In vitro concentration of compound required to inhibit 50% of factor Xa

Compound: COC(=O)c1oc2c(sc3ccccc32)c1OC(=O)C(C)C
- IC50 [1]: 160 µM
- IC50 (Coagulation factor X [2]): 100 nM
- IC50 (Serine protease 1): 29 µM
- IC50 (Plasma kallikrein [3]): 7.2 µM
- IC50 (Plasminogen [4]): 240 µM

Compound: COC(=O)c1oc2c(sc3ccccc32)c1OC(=O)N(C)C
- IC50 (Prothrombin): > 10 µM

Compound: COC(=O)c1oc2c(sc3ccccc32)c1O
- IC50 (Prothrombin): > 10 µM

Compound: COC(=O)c1oc2c(sc3ccccc32)c1OC
- IC50 (Prothrombin): > 10 µM

Compound: CN[C@H](C(=O)N1CCC[C@H]1C(=O)N[C@@H](CCCNC(=N)N)C(=O)O)c1ccccc1 (H-[NMePhg]-Pro-Arg-OH)
- IC50 (Prothrombin): 0.02 µM

Compound: CN[C@@H](C(=O)N1CCC[C@H]1C(=O)N[C@H](C=O)CCCNC(=N)N)c1ccccc1 (H-[dNMePhg]-Pro-Arg-aldehyde)
- IC50 [1]: 43 µM
- IC50 (Plasminogen [5]): 500 nM
- IC50 (Serine protease 1): 0.02 µM
- IC50 (Plasma kallikrein [6]): 12 µM
- IC50 (Coagulation factor X [7]): 2200 nM
